Laboratory results from ChEMBL document CHEMBL3991601, “The target landscape of clinical kinase drugs” (Science, 2017).
pKd: −log10 of the molar value. Calls of active or inactive are those of the source.

Columns and labels:
[1] = target: Cyclin-dependent kinase 10 (Homo sapiens, UniProt Q15131)
[2] = target: Nucleoside diphosphate kinase B (Homo sapiens, UniProt P22392)
[3] = target: T1, Dual specificity protein kinase TTK (Homo sapiens, UniProt P33981)
T1 sequence (P33981 whole entry): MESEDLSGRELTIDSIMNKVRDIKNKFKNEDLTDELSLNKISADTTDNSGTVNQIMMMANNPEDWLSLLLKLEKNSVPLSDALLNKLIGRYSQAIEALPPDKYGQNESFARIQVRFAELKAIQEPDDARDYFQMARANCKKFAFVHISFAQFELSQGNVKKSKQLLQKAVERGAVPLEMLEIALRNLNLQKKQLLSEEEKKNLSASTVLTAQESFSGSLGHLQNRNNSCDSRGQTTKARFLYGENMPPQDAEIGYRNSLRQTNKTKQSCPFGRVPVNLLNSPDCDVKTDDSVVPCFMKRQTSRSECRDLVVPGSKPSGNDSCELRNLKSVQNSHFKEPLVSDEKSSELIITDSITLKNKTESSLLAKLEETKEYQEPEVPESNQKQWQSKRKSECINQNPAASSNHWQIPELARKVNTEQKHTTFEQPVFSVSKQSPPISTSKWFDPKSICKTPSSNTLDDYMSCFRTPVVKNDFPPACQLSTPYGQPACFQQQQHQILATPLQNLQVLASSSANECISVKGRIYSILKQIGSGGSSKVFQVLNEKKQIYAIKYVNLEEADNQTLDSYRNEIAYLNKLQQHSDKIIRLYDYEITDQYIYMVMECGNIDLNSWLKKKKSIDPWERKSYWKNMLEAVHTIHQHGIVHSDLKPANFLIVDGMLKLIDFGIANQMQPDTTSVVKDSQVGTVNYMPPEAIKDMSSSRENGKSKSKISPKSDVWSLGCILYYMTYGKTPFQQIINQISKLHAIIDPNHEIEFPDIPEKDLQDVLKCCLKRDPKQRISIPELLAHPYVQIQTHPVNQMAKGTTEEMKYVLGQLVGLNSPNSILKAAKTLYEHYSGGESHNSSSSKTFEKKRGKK

[4] = target: Serine/threonine-protein kinase PLK1 (Homo sapiens, UniProt P53350)
[5] = target: ALK tyrosine kinase receptor (Homo sapiens, UniProt Q9UM73); format: subcellular, K-562, COLO 205, SK-N-BE(2) and MV-4-11, Cell lysate; settings: read-out: Kd apparent
[6] = target: Serine/threonine-protein kinase 38 (Homo sapiens, UniProt Q15208)
[7] = target: Dual specificity protein kinase CLK3 (Homo sapiens, UniProt P49761); format: subcellular, K-562, COLO 205, SK-N-BE(2) and MV-4-11, Cell lysate; settings: read-out: Kd apparent
[8] = target: Cell division cycle 7-related protein kinase (Homo sapiens, UniProt O00311)
[9] = target: T2, Cyclin-dependent kinase-like 5 (Homo sapiens, UniProt O76039)
T2 sequence (O76039 whole entry): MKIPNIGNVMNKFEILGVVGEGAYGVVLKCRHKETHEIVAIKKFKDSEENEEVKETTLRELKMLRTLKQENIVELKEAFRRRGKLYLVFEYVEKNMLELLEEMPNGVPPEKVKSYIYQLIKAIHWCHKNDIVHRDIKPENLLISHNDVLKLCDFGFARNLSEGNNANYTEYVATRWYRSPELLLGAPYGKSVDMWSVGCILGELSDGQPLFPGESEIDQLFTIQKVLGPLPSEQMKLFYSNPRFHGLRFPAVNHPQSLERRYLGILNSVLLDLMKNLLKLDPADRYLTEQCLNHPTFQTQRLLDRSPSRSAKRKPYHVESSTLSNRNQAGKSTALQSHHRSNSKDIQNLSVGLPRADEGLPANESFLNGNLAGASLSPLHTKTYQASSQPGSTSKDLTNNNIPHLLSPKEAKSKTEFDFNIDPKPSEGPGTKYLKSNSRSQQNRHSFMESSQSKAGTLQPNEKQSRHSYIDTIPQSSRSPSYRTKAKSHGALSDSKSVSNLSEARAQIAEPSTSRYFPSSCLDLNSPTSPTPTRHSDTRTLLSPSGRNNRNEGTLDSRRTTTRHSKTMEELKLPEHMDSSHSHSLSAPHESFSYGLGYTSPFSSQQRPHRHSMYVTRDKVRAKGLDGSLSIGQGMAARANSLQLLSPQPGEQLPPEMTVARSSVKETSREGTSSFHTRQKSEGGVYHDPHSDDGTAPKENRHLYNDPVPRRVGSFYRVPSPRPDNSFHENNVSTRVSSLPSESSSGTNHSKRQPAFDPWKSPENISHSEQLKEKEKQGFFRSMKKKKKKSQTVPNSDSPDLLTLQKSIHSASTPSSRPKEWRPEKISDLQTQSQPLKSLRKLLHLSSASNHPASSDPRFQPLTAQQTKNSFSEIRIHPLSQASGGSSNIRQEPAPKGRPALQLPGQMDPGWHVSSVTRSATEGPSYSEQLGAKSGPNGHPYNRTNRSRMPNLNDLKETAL

[10] = target: Activin receptor type-1-like (Homo sapiens, UniProt P37023)
[11] = target: Eukaryotic peptide chain release factor GTP-binding subunit ERF3B (Homo sapiens, UniProt Q8IYD1)
[12] = target: Tyrosine-protein kinase JAK2 (Homo sapiens, UniProt O60674)
[13] = target: Dual specificity tyrosine-phosphorylation-regulated kinase 1B (Homo sapiens, UniProt Q9Y463)
[14] = target: Mast/stem cell growth factor receptor Kit (Homo sapiens, UniProt P10721)
[15] = target: Cyclin-dependent kinase 18 (Homo sapiens, UniProt Q07002)
[16] = target: Tyrosine-protein kinase Fgr (Homo sapiens, UniProt P09769)
[17] = target: Cyclin-dependent kinase 9 (Homo sapiens, UniProt P50750)
Also: in the data inactive means no Kd found up to 30 µM.

Cyclin-dependent kinase 18, sequence (Q07002 whole entry): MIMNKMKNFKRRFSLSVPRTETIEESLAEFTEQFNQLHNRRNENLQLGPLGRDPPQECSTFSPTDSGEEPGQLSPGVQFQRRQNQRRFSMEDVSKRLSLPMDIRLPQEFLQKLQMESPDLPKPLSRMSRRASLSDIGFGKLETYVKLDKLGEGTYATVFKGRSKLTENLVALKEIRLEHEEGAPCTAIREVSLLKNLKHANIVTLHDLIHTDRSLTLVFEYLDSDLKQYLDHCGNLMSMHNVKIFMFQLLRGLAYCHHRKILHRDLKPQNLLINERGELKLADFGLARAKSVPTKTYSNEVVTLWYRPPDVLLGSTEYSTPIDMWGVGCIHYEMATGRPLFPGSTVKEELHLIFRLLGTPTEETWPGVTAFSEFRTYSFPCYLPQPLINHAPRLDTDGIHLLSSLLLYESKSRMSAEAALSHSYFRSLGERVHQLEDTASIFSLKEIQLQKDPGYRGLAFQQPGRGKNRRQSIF
Tyrosine-protein kinase Fgr, sequence (P09769 whole entry): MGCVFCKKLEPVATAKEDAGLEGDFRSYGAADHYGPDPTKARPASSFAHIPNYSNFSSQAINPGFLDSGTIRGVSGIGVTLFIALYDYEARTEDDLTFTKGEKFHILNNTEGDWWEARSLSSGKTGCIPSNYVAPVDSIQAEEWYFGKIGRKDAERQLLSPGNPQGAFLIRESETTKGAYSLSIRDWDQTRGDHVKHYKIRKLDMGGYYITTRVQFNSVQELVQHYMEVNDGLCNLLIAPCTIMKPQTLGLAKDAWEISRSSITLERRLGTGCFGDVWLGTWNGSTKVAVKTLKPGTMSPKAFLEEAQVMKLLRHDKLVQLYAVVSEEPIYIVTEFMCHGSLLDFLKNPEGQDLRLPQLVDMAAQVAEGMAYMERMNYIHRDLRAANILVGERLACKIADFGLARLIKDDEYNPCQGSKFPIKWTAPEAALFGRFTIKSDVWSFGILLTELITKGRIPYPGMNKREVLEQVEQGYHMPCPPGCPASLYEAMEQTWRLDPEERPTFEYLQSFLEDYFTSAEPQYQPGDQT
Dual specificity tyrosine-phosphorylation-regulated kinase 1B, sequence (Q9Y463 whole entry): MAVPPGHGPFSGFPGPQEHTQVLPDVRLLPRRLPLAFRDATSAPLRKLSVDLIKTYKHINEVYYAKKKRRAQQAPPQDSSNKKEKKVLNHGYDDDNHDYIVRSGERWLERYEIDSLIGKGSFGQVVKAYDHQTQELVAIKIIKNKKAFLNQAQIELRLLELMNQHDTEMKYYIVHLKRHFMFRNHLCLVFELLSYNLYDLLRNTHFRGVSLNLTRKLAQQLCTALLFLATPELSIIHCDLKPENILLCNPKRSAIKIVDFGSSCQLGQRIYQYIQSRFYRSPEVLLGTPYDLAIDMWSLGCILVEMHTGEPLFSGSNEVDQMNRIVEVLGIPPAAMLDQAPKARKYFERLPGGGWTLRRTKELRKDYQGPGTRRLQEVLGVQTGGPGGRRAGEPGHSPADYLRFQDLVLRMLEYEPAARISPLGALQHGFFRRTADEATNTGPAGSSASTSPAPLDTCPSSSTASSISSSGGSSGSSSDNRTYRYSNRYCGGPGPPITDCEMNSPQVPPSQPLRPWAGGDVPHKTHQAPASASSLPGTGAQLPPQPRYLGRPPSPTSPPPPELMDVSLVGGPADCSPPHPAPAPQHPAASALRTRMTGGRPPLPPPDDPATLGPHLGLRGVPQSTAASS
Cyclin-dependent kinase 10, sequence (Q15131 whole entry): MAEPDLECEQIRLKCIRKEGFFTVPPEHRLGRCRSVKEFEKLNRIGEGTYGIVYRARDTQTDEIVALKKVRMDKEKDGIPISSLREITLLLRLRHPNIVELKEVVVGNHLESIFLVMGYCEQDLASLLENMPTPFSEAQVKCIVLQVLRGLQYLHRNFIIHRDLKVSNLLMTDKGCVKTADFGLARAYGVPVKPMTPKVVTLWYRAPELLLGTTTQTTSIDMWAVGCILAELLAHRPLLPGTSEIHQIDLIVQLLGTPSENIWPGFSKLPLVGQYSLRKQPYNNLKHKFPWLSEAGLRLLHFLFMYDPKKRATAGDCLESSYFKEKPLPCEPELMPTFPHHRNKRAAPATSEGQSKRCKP
Eukaryotic peptide chain release factor GTP-binding subunit ERF3B, sequence (Q8IYD1 whole entry): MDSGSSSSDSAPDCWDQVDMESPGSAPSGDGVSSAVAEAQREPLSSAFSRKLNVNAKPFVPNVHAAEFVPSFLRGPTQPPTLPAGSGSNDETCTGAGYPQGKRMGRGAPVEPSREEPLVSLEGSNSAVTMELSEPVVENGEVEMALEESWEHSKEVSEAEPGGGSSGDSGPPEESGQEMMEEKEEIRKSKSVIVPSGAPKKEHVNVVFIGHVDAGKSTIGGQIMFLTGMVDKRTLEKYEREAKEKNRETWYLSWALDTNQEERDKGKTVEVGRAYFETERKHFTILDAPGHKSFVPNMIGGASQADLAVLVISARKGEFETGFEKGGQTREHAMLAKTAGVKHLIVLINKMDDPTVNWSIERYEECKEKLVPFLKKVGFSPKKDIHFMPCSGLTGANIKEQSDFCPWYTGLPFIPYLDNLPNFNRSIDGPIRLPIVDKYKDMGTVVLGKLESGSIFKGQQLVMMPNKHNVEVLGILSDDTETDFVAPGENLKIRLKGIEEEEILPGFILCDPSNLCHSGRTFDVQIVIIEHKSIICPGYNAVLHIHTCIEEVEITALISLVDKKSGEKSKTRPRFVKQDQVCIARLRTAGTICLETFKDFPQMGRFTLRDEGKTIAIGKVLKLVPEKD
ALK tyrosine kinase receptor, sequence (Q9UM73 whole entry): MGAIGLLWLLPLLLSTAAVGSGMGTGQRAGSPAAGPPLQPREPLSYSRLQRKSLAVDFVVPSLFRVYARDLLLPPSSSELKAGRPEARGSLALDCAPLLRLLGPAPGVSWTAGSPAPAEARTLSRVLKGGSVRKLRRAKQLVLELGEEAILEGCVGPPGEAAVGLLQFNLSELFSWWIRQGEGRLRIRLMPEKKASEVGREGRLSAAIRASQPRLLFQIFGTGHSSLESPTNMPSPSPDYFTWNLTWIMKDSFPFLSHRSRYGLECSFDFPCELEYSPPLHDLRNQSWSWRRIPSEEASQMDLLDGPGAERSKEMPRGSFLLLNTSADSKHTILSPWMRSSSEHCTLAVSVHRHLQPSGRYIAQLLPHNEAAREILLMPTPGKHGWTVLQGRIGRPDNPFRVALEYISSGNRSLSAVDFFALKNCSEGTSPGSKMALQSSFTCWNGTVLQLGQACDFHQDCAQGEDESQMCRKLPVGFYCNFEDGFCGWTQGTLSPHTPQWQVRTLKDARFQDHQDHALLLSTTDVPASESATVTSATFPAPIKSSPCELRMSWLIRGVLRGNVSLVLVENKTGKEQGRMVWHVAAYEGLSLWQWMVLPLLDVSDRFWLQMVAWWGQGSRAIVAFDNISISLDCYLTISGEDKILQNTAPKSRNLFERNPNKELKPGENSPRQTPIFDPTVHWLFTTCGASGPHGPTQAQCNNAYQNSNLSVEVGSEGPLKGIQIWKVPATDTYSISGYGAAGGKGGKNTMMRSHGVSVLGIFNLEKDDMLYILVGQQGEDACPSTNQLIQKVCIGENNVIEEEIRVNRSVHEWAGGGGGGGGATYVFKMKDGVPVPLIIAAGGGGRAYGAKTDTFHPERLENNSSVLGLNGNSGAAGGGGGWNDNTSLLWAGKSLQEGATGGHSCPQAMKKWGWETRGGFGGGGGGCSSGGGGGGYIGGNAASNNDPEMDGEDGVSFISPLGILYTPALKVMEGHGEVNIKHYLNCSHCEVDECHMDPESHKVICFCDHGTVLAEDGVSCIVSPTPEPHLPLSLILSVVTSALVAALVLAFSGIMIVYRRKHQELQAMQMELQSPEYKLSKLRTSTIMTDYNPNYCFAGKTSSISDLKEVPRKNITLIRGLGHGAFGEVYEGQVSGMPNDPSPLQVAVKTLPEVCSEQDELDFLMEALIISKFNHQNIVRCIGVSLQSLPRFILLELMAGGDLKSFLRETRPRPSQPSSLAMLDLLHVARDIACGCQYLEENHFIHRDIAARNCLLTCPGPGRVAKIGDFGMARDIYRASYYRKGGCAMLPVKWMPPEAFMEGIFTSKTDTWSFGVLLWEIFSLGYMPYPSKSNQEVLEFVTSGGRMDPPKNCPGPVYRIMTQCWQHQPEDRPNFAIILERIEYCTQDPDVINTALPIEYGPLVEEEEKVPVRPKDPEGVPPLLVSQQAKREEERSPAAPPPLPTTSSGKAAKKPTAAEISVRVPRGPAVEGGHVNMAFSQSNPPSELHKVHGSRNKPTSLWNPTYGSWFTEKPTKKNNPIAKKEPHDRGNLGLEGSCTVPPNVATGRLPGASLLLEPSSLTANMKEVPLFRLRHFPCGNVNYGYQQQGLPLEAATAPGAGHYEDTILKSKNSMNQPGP
Cell division cycle 7-related protein kinase, sequence (O00311 whole entry): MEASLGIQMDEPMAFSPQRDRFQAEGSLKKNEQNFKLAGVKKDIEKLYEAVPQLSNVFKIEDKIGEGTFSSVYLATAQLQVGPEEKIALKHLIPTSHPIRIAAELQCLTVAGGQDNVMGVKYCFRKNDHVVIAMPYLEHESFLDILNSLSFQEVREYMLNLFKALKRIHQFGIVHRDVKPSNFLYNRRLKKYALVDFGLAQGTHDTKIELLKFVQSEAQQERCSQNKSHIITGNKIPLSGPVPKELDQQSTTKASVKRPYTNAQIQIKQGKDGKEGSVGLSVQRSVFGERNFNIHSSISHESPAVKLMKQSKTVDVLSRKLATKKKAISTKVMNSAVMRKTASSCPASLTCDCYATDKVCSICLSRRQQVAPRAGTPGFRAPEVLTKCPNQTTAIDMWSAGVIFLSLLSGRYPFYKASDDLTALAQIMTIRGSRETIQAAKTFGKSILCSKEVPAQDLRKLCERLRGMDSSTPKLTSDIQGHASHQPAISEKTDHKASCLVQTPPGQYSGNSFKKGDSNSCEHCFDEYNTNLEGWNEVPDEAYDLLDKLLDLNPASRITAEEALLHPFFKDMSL
Nucleoside diphosphate kinase B, sequence (P22392 whole entry): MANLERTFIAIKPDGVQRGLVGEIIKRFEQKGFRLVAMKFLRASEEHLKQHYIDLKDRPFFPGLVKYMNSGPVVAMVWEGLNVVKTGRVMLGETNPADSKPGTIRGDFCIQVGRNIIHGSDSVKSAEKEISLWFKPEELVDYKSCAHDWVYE

COc1cc(Nc2ncc3c(n2)-c2ccc(Cl)cc2C(c2c(F)cccc2OC)=NC3)ccc1C(=O)O [ALISERTIB]
inactive: Kd [1] > 30 µM | Kd [2] > 30 µM | Kd [3] > 30 µM

O=C(Nc1c[nH]nc1-c1nc2cc(CN3CCOCC3)ccc2[nH]1)NC1CC1 [AT-9283]
6.29: pKd [8]
inactive: Kd [4] > 30 µM | Kd [5] > 30 µM | Kd [6] > 30 µM | Kd [3] > 30 µM | Kd [7] > 30 µM | Kd [9] > 30 µM
8.05: pKd [1]
active: Kd [10] 0.015 µM

CCn1c(C(=O)N(C2CC2)C2CC2)cc2c3c(ncn3C)c(Nc3cc(C)n(C)n3)nc21 [BMS-911543]
inactive: Kd [4] > 30 µM | Kd [5] > 30 µM | Kd [11] > 30 µM | Kd [3] > 30 µM | Kd [7] > 30 µM | Kd [8] > 30 µM | Kd [12] > 30 µM | Kd [9] > 30 µM | Kd [10] > 30 µM

COc1c(OCCCN2CCOCC2)ccc2c1N=C(NC(=O)c1cnc(N)nc1)N1CCN=C21 [COPANLISIB]
inactive: Kd [13] > 30 µM | Kd [4] > 30 µM | Kd [6] > 30 µM | Kd [11] > 30 µM | Kd [14] > 30 µM | Kd [15] > 30 µM | Kd [7] > 30 µM | Kd [9] > 30 µM

C#Cc1cccc(Nc2ncnc3cc(OC)c(OCCCCCCC(=O)NO)cc23)c1 [CUDC-101]
active: Kd [2] 0.142 µM
inactive: Kd [4] > 30 µM | Kd [16] > 30 µM | Kd [3] > 30 µM | Kd [7] > 30 µM | Kd [8] > 30 µM | Kd [12] > 30 µM | Kd [9] > 30 µM | Kd [10] > 30 µM

CNC(=O)c1nn(C)c2c1C(C)(C)Cc1cnc(Nc3ccc(N4CCN(C)CC4)cc3)nc1-2 [MILCICLIB]
inactive: Kd [2] > 30 µM | Kd [3] > 30 µM | Kd [7] > 30 µM | Kd [8] > 30 µM | Kd [9] > 30 µM

CN(C[C@@H]1COCCO1)S(=O)(=O)Nc1ccc2ccc3ncc(-c4cnn(C)c4)cc3c(=O)c2c1 [MK-2461]
inactive: Kd [5] > 30 µM | Kd [6] > 30 µM | Kd [15] > 30 µM | Kd [8] > 30 µM

FC(F)(F)c1ccc(/C=C/c2nc(COc3ccc(CCCCn4ccnn4)cc3)co2)cc1 [MUBRITINIB]
inactive: Kd [4] > 30 µM | Kd [1] > 30 µM | Kd [2] > 30 µM | Kd [3] > 30 µM | Kd [9] > 30 µM

COc1ncc(-c2ccc3nccc(-c4ccnnc4)c3c2)cc1NS(=O)(=O)c1ccc(F)cc1F [OMIPALISIB]
inactive: Kd [4] > 30 µM | Kd [5] > 30 µM | Kd [6] > 30 µM | Kd [2] > 30 µM | Kd [14] > 30 µM | Kd [3] > 30 µM | Kd [8] > 30 µM

Cc1nc(Nc2n[nH]c3c2CN(C(=O)N[C@H](CN(C)C)c2ccccc2)C3(C)C)c2sccc2n1 [PF-03758309]
inactive: Kd [4] > 30 µM | Kd [1] > 30 µM | Kd [7] > 30 µM | Kd [8] > 30 µM
active: Kd [15] 0.067 µM | Kd [9] 1.93 µM
7.12: pKd [6]

CO[C@H]1C[C@@H]2CC[C@@H](C)[C@@](O)(O2)C(=O)C(=O)N2CCCC[C@H]2C(=O)O[C@H]([C@H](C)C[C@@H]2CC[C@@H](OP(C)(C)=O)[C@H](OC)C2)CC(=O)[C@H](C)/C=C(\C)[C@@H](O)[C@@H](OC)C(=O)[C@H](C)C[C@H](C)/C=C/C=C/C=C/1C [RIDAFOROLIMUS]
5.90: pKd [13]
inactive: Kd [1] > 30 µM | Kd [17] > 30 µM | Kd [11] > 30 µM | Kd [3] > 30 µM | Kd [7] > 30 µM | Kd [8] > 30 µM | Kd [12] > 30 µM | Kd [9] > 30 µM

O=c1[nH]ccc2cc(OC3CCNCC3)ccc12 [SAR-407899 FREE BASE]
inactive: Kd [4] > 30 µM | Kd [6] > 30 µM | Kd [11] > 30 µM | Kd [14] > 30 µM | Kd [9] > 30 µM

CN1CCN(CCOc2cc(OC3CCOCC3)c3c(Nc4c(Cl)ccc5c4OCO5)ncnc3c2)CC1 [SARACATINIB]
inactive: Kd [4] > 30 µM | Kd [1] > 30 µM | Kd [2] > 30 µM | Kd [3] > 30 µM | Kd [7] > 30 µM | Kd [12] > 30 µM

CO[C@H]1C[C@@H]2CC[C@@H](C)[C@@](O)(O2)C(=O)C(=O)N2CCCC[C@H]2C(=O)O[C@H]([C@H](C)C[C@@H]2CC[C@@H](O)[C@H](OC)C2)CC(=O)[C@H](C)/C=C(\C)[C@@H](O)[C@@H](OC)C(=O)[C@H](C)C[C@H](C)/C=C/C=C/C=C/1C [SIROLIMUS]
inactive: Kd [13] > 30 µM | Kd [4] > 30 µM | Kd [16] > 30 µM | Kd [17] > 30 µM | Kd [15] > 30 µM | Kd [3] > 30 µM | Kd [7] > 30 µM | Kd [8] > 30 µM | Kd [12] > 30 µM | Kd [9] > 30 µM | Kd [10] > 30 µM

CO[C@H]1C[C@@H]2CC[C@@H](C)[C@@](O)(O2)C(=O)C(=O)N2CCCC[C@H]2C(=O)O[C@H]([C@H](C)C[C@@H]2CC[C@@H](OC(=O)C(C)(CO)CO)[C@H](OC)C2)CC(=O)[C@H](C)/C=C(\C)[C@@H](O)[C@@H](OC)C(=O)[C@H](C)C[C@H](C)/C=C/C=C/C=C/1C [TEMSIROLIMUS]
inactive: Kd [4] > 30 µM | Kd [1] > 30 µM | Kd [5] > 30 µM | Kd [16] > 30 µM | Kd [17] > 30 µM | Kd [11] > 30 µM | Kd [3] > 30 µM | Kd [7] > 30 µM | Kd [8] > 30 µM | Kd [12] > 30 µM | Kd [9] > 30 µM

O=C(Cc1ccc(-c2ccc(OCCN3CCOCC3)cc2)cn1)NCc1ccccc1 [TIRBANIBULIN]
inactive: Kd [13] > 30 µM | Kd [4] > 30 µM | Kd [16] > 30 µM | Kd [6] > 30 µM | Kd [11] > 30 µM | Kd [7] > 30 µM | Kd [12] > 30 µM | Kd [10] > 30 µM

C[C@@H](N)c1ccc(C(=O)Nc2ccnc3[nH]ccc23)cc1 [Y-39983]
inactive: Kd [4] > 30 µM | Kd [6] > 30 µM | Kd [14] > 30 µM | Kd [8] > 30 µM | Kd [9] > 30 µM
